Patent publication US20060084599A1, “Compositions, methods and kits relating to notch signaling” (Maine Medical Center, priority 2003, published 2006)
Marks after values point to notes of the source that are not given here.

B1: sDl1: soluble non-transmembrane form (extracellular domain) of the Notch ligand Delta1 (protein)
chain: QVWSSGVFELKLQEFVNKKGLLGNRNCCRGGAGPPPCACRTFFRVCLKHYQASVSPEPPCTYGSAVTPVLGVDSFSLPDGGGADSAFSNPIRFPFGFTWPGTFSLIIEALHTDSPDDLATENPERLISRLATQRHLTVGEEWSQDLHSSGRTDLKYSYRFVCDEHYYGEGCSVFCRPRDDAFGHFTCGERGEKVCNPGWKGPYCTEPICLPGCDEQHGFCDKPGECKCRVGWQGRYCDECIRYPGCLHGTCQQPWQCNCQEGWGGLFCNQDLNYCTHHKPCKNGATCTNTGQGSYTCSCRPGYTGATCELGIDECDPSPCKNGGSCTDLENSYSCTCPPGFYGKICELSAMTCADGPCFNGGRCSDSPDGGYSCRCPVGYSGFNCEKKIDYCSSSPCSNGAKCVDLGDAYLCRCQAGFSGRHCDDNVDDCASSPCANGGTCRDGVNDFSCTCPPGYTGRNCSAPVSRCEHAPCHNGATCHERGHRYVCECARGYGGPNCQFLLPELPPGPAVVDLTEKLEGQGGPFPW
modifications: left off: small tags and cut ends
notes: soluble non-transmembrane form (extracellular domain) of the Notch ligand Delta1

Columns and labels:
NCSC populations [1] = assay: Clonogenic differentiation assay of NCSC: ligand pre-incubation, then BMP2 challenge; format: cell-based, mouse; conditions: then 1 ng/ml BMP2 seven days, mean ± SD
Description: Clonogenic assays were performed as described (Stemple et al., 1992, Cell 71:973-985). Briefly, populations of murine NCSC were plated at a clonal density and maintained for a maximum of 14 days in Morrison media supplemented with 15% chick embryo extract (Morrison et al., 1999, Cell 96:737-749). The resulting clones were fixed in an acetic acid:ethanol solution (2:1) and stained with antibodies against peripherin (Chemicon) to detect neurons, smooth muscle actin (Sigma) to detect myofibroblasts, and GFAP (Chemicon) to detect Schwann cells. Clones were scored based on the appearance of just one phenotypic representative. The number and percentage of clones containing neurons only (N), Schwann cells only (S), myofibroblasts only (M), N+S, N+M, N+S+M, and S+M were scored at day 14 unless otherwise stated. The production of each representative phenotype in each individual clone was also scored to complement the clonal population assay.
NCSC Retain Neurogenic capacity in the presence of sJ1. A clonogenic differentiation assay was performed using mouse NSCS populations as described previously (Kubu et al., 2002, Dev. Biol. 244:199-214; Stemple et al., 1992, Cell 71:973-985). The cells were incubated in Stemple media (Stemple et al., 1992) with or without 5 nM sDl1 or 7.5 nM sJ1 for the time periods set forth in Table 1. After the initial incubation period, cells were washed and neuronal differentiation was challenged in the presence of 1 ng/ml BMP2 for an additional seven days. The resulting clones were fixed and stained for detection of neural crest markers. The data disclosed in Table 1 is presented as the percentage of glial-only, neuron-only, and neuron colonies containing either smooth muscle or glial markers as the mean ± standard deviation (SD) of three experiments originating from three independent cell isolations. Note the retention of neurogenic differentiation capacity in sJ1-treated cells (*=p<0.01) compared with the sDl1-treated cells.

[2] = test system: NIH 3T3 cell transfectants; assay: Colony formation in soft agar (anchorage-independent growth); format: cell-based, murine; conditions: stable NIH 3T3 cell transfectants expressing the ligand
Description: Clonal populations of NIH 3T3 cells stably transfected with vector control, soluble Jagged1 (sJ1), constitutively active Notch1 (caN1), constitutively active Notch 2 (caN2), dominant negative Notch 1 (dnN1), dominant negative Notch 2 (dnN2), an oncogenic mutant of FGF1 engineered with the FGF4 signal peptide sequence (hst-β (FGF4):FGF1), or constitutively active oncogenic Ras construct (caRas), were plated on 6 cm tissue culture dishes with 0.5% agar in an overlay containing DMEM (Gibco BRL) media, 10% bovine calf serum (BCS; Hyclone), and 0.33% agar at 1.5×10^3 cells/dish. As indicated, some dishes were also treated with 1 μM of the FGFR1-specific inhibitor, PD166866 (Panek et al., 1998, J. Pharmacol. Exp. Ther. 286: 569-577) and/or 10 ng/ml recombinant human FGF1 and 10 U/ml heparin (Sigma). Cells were fed with 0.5 ml of media with or without FGF1 and/or the FGFR1-specific inhibitor every 3 days as indicated. Twenty days after plating, colonies were stained with p-iodonitrotetrazolium violet (Sigma) for visualization. Quantitation of colony formation was achieved by counting all p-iodonitrotetrazolium violet-stained colonies consisting of more than 4 cells under a Zeiss Stemi SVII Apo dissecting microscope.
Anchorage-Dependent and -Independent Cell Growth Assays. Approximately 3×10^4 cells were plated on fibronectin (10 μg/cm^2)-coated in 12-well cell culture dishes (Falcon) in DMEM containing 10% BCS (v/v) (Hyclone). Three wells of the individual NIH 3T3 cell transfectants were harvested every third day and cell number was quantitated using a hemocytometer. Anchorage-independent cell growth was evaluated by plating in duplicate approximately 1.7×10^3 cells in DMEM containing 0.5% (w/v) agar (Sigma) 10% (v/v) BCS into 5 cm plastic dishes (Falcon) as previously described (Small et al., 2003, J. Biol. Chem. 278:16405-16413).

Src = Src pY418 immunoblot; format: cell-based, mouse; conditions: stable NIH 3T3 cell transfectants expressing the ligand
Description: (§1) Immunoblot Analysis. Cell lysates from insert-less vector sDl1 and sJ1 NIH 3T3 cell transfectants were prepared in 20 mM Tris HCl, pH 7.5, containing 300 mM sucrose, 60 mM—KCl, 15 mM NaCl, 0.5 mM EDTA, 0.5% (v/v) Triton X-100, 1 mM phenylmethylsulfonyl fluoride, 10 μg/ml leupeptin, 2 μg/ml aprotinin, 0.1% (w/v) deoxycholic acid and 1 mM sodium orthovanadate. Samples of equal protein content were subjected to SDS-PAGE and immunoblot analysis was performed as previously described (Small et al., 2001, J. Biol. Chem. 276:32022-32030) using either a rabbit anti-Src [pY418] phosphospecific antibody (Biosource International), a rabbit anti-total Src antibody (Santa Cruz Biotechnology), a rabbit polyclonal anti-cortactin antibody (a gift from Dr. Xi Zhan, American Red Cross), or an anti-phosphotyrosine antibody (Upstate). Immunoprecipitation of cortactin was performed as previously described (Zhan et al., 1993, J. Biol. Chem. 268:24427-24431).

cortactin = assay: Phosphotyrosine cortactin immunoblot; format: cell-based, mouse; conditions: stable NIH 3T3 cell transfectants expressing the ligand
Description: as §1

NCSC populations [3] = assay: Dosage sensitivity of secondary NCSC to BMP2 and sDl1; format: cell-based, murine; conditions: founders expanded 18 days; BMP2 and sDl1 dose response
Description: It is well established that quantitative changes in the dosage sensitivity of NCSC populations occur in vitro and in vivo during NCSC self-renewal (Kubu et al., 2002, Dev. Biol. 244:199-214; White et al., 1999, Development 126:4351-4363; White et al., 2001, Neuron 29:57-71). In order to resolve whether it was possible to clonally expand stem cell populations without the loss of qualitative or quantitative differentiation potential, it was evaluated whether NCSC population expansion in either a thrombin or a sJ 1 environment was able to maintain the quantitative dosage sensitivity of the NCSC populations to instructive differentiation factors. NCSC clones were expanded with either thrombin, TRAP, or sJ1 for 18 days, the clones dissociated to a clonal density every 6 days to minimize cell-cell interactions, and the p75^+/P0^− cells identified. The dosage sensitivity of secondary NCSC populations to both BMP2 and sDl1 was evaluated using the clonogenic differentiation assay to quantitate the production of neuron-only clones (BMP2) and glial-only clones (sDl1) after day 18.

[4] = 5 nM sDl1 or 7.5 nM sJ1 for 24 hrs

| Molecule | Glial-Only colonies (NCSC populations [1]; [4]) [%] | Neuron-Containing colonies (NCSC populations [1]; [4]) | Neuron-Only colonies (NCSC populations [1]; [4]) | Glial-Only colonies (NCSC populations [1]; 7.5 nM sJ1 for 72 hrs) [%*] | Neuron-Containing colonies (NCSC populations [1]; 7.5 nM sJ1 for 72 hrs) [%*] | Neuron-Only colonies (NCSC populations [1]; 7.5 nM sJ1 for 72 hrs) [%*] | Glial-Only colonies (NCSC populations [1]; 7.5 nM sJ1 for 120 hrs) [%*] | Neuron-Containing colonies (NCSC populations [1]; 7.5 nM sJ1 for 120 hrs) [%*] | Neuron-Only colonies (NCSC populations [1]; 7.5 nM sJ1 for 120 hrs) [%*] | Glial-Only colonies (NCSC populations [1]; 7.5 nM sJ1 for 168 hrs) [%*] | Neuron-Containing colonies (NCSC populations [1]; 7.5 nM sJ1 for 168 hrs) [%] | Neuron-Only colonies (NCSC populations [1]; 7.5 nM sJ1 for 168 hrs) [%*] | anchorage-independent growth of transfectants [2] | level of active Src (Src) | level of tyrosine-phosphorylated cortactin (cortactin) | shift in sensitivity of secondary stem cells to instructive differentiation signals (NCSC populations [3]) |
| --- | --- | --- | --- | --- | --- | --- | --- | --- | --- | --- | --- | --- | --- | --- | --- | --- |
| sJ1: Soluble Jagged1, amino acid residues about 1 to 1067 (SEQ ID NO:3) of full-length human Jagged1 | 0 | 71.4 ± 6.2%* | 54.4 ± 8.4%* | 0.8 ± 1.4 | 74.8 ± 16.3 | 42.8 ± 6.6 | 5.82 ± 3.4 | 52.01 ± 14.1 | 13.43 ± 6.5 | 13.3 ± 4.5 | 35.03 ± 9.1 | 6.5 ± 1.3 | form colonies in soft agar | increase in the level of active Src | increased level | this shift in sensitivity to instructive differentiation signals was not observed |
| thrombin |  |  |  |  |  |  |  |  |  |  |  |  |  |  |  | this shift in sensitivity to instructive differentiation signals was not observed |
| B1 | 57.8 ± 9.9 | 7.0 ± 5.7% | 0% |  |  |  |  |  |  |  |  |  | form colonies in soft agar | increase in the level of active Src | decrease |  |
